Results published in patent US20210221866A1, “PROTEASE-RESISTANT LIPIDATED GLP-1 ANALOGS” (MEDIMMUNE LIMITED, priority 2015, published 2021).
pEC50: −log10 of the molar value. Read-outs that look alike come from different tables or passages of the source. Numbered stars: 1 amine (or outer) side, 2 acyl side, 3 side chain; on linkers, the order of the positions; unused ones are H or OH. Square brackets hold non-standard residues; d marks the D form. Side chains are listed from the residue outwards. Peptide text beside a SMILES is read from it. * marks the point of attachment. C18 diacid = O=C(O)CCCCCCCCCCCCCCCCC(=O)*; γGlu = O=C(O)[C@H](CCC(=O)[*:2])N[*:1]; Palmitoyl = CCCCCCCCCCCCCCCC(=O)*; αMeF = C[C@](N)(Cc1ccccc1)C(=O)O; αMeK = C[C@](N)(CCCCN)C(=O)O; αMeS = C[C@](N)(CO)C(=O)O; AEEA = NCCOCCOCC(=O)O; Aib = CC(C)(N)C(=O)O

Target: T1, human GLP-1 receptor (GLP-1R) (Homo sapiens, UniProt P43220)
T1 construct: expressed in transfected cells; host or cells: HEK293 cells or CHO cells
T1 sequence (P43220 24-463): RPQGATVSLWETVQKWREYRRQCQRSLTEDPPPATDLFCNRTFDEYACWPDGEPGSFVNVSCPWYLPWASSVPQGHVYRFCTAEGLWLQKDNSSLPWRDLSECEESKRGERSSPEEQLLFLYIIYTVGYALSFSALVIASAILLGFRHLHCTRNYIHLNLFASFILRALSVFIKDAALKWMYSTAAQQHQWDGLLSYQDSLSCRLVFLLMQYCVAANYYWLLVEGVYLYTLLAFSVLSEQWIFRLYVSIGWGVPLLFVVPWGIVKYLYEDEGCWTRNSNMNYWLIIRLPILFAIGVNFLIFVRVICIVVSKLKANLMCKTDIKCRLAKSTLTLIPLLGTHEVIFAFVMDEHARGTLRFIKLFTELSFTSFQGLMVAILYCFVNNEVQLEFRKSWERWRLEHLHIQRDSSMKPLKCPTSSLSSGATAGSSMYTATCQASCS
Test: cAMP assay, human GLP-1R cells
Type: cell-based
Settings: cAMP activity; for EC50: mean of n1 and n2, read-out: Mean pM GLP-1R; for pEC50: second determination (n2), read-out: Primary assay EC50 GLP-1R n2
Protocol: Sample dilutions are made in duplicate.
A frozen cryo-vial of cells expressing the receptor of interest is thawed rapidly in a water-bath, transferred to pre-warmed assay buffer and spun at 240×g for 5 minutes. Cells are re-suspended in assay buffer at a batch-dependent optimized concentration (e.g. hGCGR cells at 2×10^5 cells/ml, hGLP-1R and hGIPR cells at 1×10^5 cells/ml).
To this, 5 μL cell suspension is added and the plates incubated at room temperature for 30 minutes.
cAMP levels are measured using a commercially available cAMP dynamic 2 HTRF kit (Cisbio, Cat #62AM4PEJ), following the two step protocol as per manufacturer's recommendations. In brief; anti-cAMP cryptate (donor fluorophore) and cAMP-d2 (acceptor fluorophore) are made up separately by diluting each 1/20 in conjugate & lysis buffer provided in the kit. 5 μL anti-cAMP cryptate is added to wells of the assay plate, and 5 μL cAMP-d2 is added to wells except non-specific binding (NSB) wells, to which conjugate and lysis buffer are added. […] EC50 values of the synthetic peptides determined in cAMP assays are then determined.
Data is transformed to % Delta F as described in the manufacturer's guidelines and analyzed by 4-parameter logistic fit to determine EC50 values. […] To compare the balance of activities at the GLP-1R and GCGR between different peptides and across different conditions, these can be correlated, where the EC50's are related to those of comparator peptides.

| SMILES | EC50 [pM] | pEC50 |
| --- | --- | --- |
| CCCCCCCCCCCCCCCC(=O)N[C@@H](CCC(=O)NCCCC[C@H](NC(=O)[C@](C)(Cc1ccccc1)NC(=O)[C@H](C)NC(=O)[C@@H](NC(=O)[C@](C)(Cc1ccccc1)NC(=O)[C@H](CCC(=O)O)NC(=O)[C@](C)(CCCCN)NC(=O)[C@H](C)NC(=O)[C@H](C)NC(=O)[C@H](CCC(=O)O)NC(=O)CNC(=O)[C@H](CCC(=O)O)NC(=O)[C@H](CC(C)C)NC(=O)[C@](C)(Cc1ccccc1)NC(=O)[C@H](CO)NC(=O)[C@](C)(CO)NC(=O)[C@@H](NC(=O)[C@H](CC(=O)O)NC(=O)[C@H](CO)NC(=O)[C@@H](NC(=O)[C@](C)(Cc1ccccc1)NC(=O)[C@H](CO)NC(=O)CNC(=O)[C@H](CCC(=O)O)NC(=O)C(C)(C)NC(=O)[C@@H](N)Cc1c[nH]cn1)[C@@H](C)O)C(C)C)[C@@H](C)CC)C(=O)N[C@H](C(=O)N[C@@](C)(CCCCN)C(=O)NCC(=O)NCC(N)=O)C(C)C)C(=O)O [compound 74] (H-H[Aib]EGS[αMeF]TSDV[αMeS]S[αMeF]LEGEAA[αMeK]E[αMeF]IA[αMeF]K([γGlu-Palmitoyl])V[αMeK]GG-NH2; N-terminus assumed) | 2.1 | – |
| CC[C@H](C)[C@H](NC(=O)[C@](C)(Cc1ccccc1)NC(=O)[C@H](CCC(=O)O)NC(=O)[C@](C)(CCCCN)NC(=O)[C@H](C)NC(=O)[C@H](C)NC(=O)[C@H](CCC(=O)O)NC(=O)CNC(=O)[C@H](CCC(=O)O)NC(=O)[C@H](CC(C)C)NC(=O)[C@](C)(Cc1ccccc1)NC(=O)[C@H](CO)NC(=O)[C@](C)(CO)NC(=O)[C@@H](NC(=O)[C@H](CC(=O)O)NC(=O)[C@H](CO)NC(=O)[C@@H](NC(=O)[C@](C)(Cc1ccccc1)NC(=O)[C@H](CO)NC(=O)CNC(=O)[C@H](CCC(=O)O)NC(=O)C(C)(C)NC(=O)[C@@H](N)Cc1c[nH]cn1)[C@@H](C)O)C(C)C)C(=O)N[C@@H](C)C(=O)N[C@@](C)(Cc1ccccc1)C(=O)N[C@H](C(=O)N[C@H](C(=O)N[C@@](C)(CCCCN)C(=O)N[C@@H](CCCCNC(=O)COCCOCCNC(=O)COCCOCCNC(=O)CC[C@H](NC(=O)CCCCCCCCCCCCCCCCC(=O)O)C(=O)O)C(=O)NCC(N)=O)C(C)C)C(C)C [compound 100] (H-H[Aib]EGS[αMeF]TSDV[αMeS]S[αMeF]LEGEAA[αMeK]E[αMeF]IA[αMeF]VV[αMeK]K([AEEA-AEEA-γGlu-C18 diacid])G-NH2; N-terminus assumed) | 15 | – |
| CC[C@H](C)[C@H](NC(=O)[C@](C)(Cc1ccccc1)NC(=O)[C@H](CCC(=O)O)NC(=O)[C@](C)(CCCCN)NC(=O)[C@H](C)NC(=O)[C@H](C)NC(=O)[C@H](CCC(=O)O)NC(=O)CNC(=O)[C@H](CCC(=O)O)NC(=O)[C@H](CC(C)C)NC(=O)[C@](C)(Cc1ccccc1)NC(=O)[C@H](CO)NC(=O)[C@](C)(CO)NC(=O)[C@@H](NC(=O)[C@H](CC(=O)O)NC(=O)[C@H](CO)NC(=O)[C@@H](NC(=O)[C@](C)(Cc1ccccc1)NC(=O)[C@H](CO)NC(=O)CNC(=O)[C@H](CCC(=O)O)NC(=O)C(C)(C)NC(=O)[C@@H](N)Cc1c[nH]cn1)[C@@H](C)O)C(C)C)C(=O)N[C@@H](C)C(=O)N[C@@H](CCCCNC(=O)COCCOCCNC(=O)COCCOCCNC(=O)CC[C@H](NC(=O)CCCCCCCCCCCCCCCCC(=O)O)C(=O)O)C(=O)N[C@H](C(=O)N[C@H](C(=O)N[C@@](C)(CCCCN)C(=O)NCC(=O)NCC(N)=O)C(C)C)C(C)C [compound 104] | 5 | – |
| CC[C@H](C)[C@H](NC(=O)[C@](C)(Cc1ccccc1)NC(=O)[C@H](CCC(=O)O)NC(=O)[C@H](CCCCNC(=O)COCCOCCNC(=O)COCCOCCNC(=O)CC[C@H](NC(=O)CCCCCCCCCCCCCCC(=O)O)C(=O)O)NC(=O)[C@H](C)NC(=O)[C@H](C)NC(=O)[C@H](CCC(=O)O)NC(=O)CNC(=O)[C@H](CCC(=O)O)NC(=O)[C@H](CC(C)C)NC(=O)[C@](C)(Cc1ccccc1)NC(=O)[C@H](CO)NC(=O)[C@](C)(CO)NC(=O)[C@@H](NC(=O)[C@H](CC(=O)O)NC(=O)[C@H](CO)NC(=O)[C@@H](NC(=O)[C@](C)(Cc1ccccc1)NC(=O)[C@H](CO)NC(=O)CNC(=O)[C@H](CCC(=O)O)NC(=O)C(C)(C)NC(=O)[C@@H](N)Cc1c[nH]cn1)[C@@H](C)O)C(C)C)C(=O)N[C@@H](C)C(=O)N[C@@](C)(Cc1ccccc1)C(=O)N[C@H](C(=O)N[C@H](C(=O)N[C@@](C)(CCCCN)C(=O)NCC(=O)NCC(N)=O)C(C)C)C(C)C [compound 109] | 34 | 10.46 |
| CC[C@H](C)[C@H](NC(=O)[C@](C)(Cc1ccccc1)NC(=O)[C@H](CCC(=O)O)NC(=O)[C@](C)(CCCCN)NC(=O)[C@H](CCCCNC(=O)COCCOCCNC(=O)COCCOCCNC(=O)CC[C@H](NC(=O)CCCCCCCCCCCCCCCCC(=O)O)C(=O)O)NC(=O)[C@H](C)NC(=O)[C@H](CCC(=O)O)NC(=O)CNC(=O)[C@H](CCC(=O)O)NC(=O)[C@H](CC(C)C)NC(=O)[C@](C)(Cc1ccccc1)NC(=O)[C@H](CO)NC(=O)[C@](C)(CO)NC(=O)[C@@H](NC(=O)[C@H](CC(=O)O)NC(=O)[C@H](CO)NC(=O)[C@@H](NC(=O)[C@](C)(Cc1ccccc1)NC(=O)[C@H](CO)NC(=O)CNC(=O)[C@H](CCC(=O)O)NC(=O)C(C)(C)NC(=O)[C@@H](N)Cc1c[nH]cn1)[C@@H](C)O)C(C)C)C(=O)N[C@@H](C)C(=O)N[C@@](C)(Cc1ccccc1)C(=O)N[C@H](C(=O)N[C@H](C(=O)N[C@@](C)(CCCCN)C(=O)NCC(=O)NCC(N)=O)C(C)C)C(C)C [compound 110] (H-H[Aib]EGS[αMeF]TSDV[αMeS]S[αMeF]LEGEAK([AEEA-AEEA-γGlu-C18 diacid])[αMeK]E[αMeF]IA[αMeF]VV[αMeK]GG-NH2; N-terminus assumed) | 62 | – |

Other lines, results leading:

| EC50 [pM] | pEC50 | SMILES |
| --- | --- | --- |
| 1860 | – | CCCCCCCCCCCCCCCC(=O)N[C@@H](CCC(=O)NCCCC[C@H](NC(=O)[C@](C)(Cc1ccccc1)NC(=O)[C@H](CCC(=O)O)NC(=O)[C@](C)(CCCCN)NC(=O)[C@H](C)NC(=O)[C@H](C)NC(=O)[C@H](CCC(=O)O)NC(=O)CNC(=O)[C@H](CCC(=O)O)NC(=O)[C@H](CC(C)C)NC(=O)[C@](C)(Cc1ccccc1)NC(=O)[C@H](CO)NC(=O)[C@](C)(CO)NC(=O)[C@@H](NC(=O)[C@H](CC(=O)O)NC(=O)[C@H](CO)NC(=O)[C@@H](NC(=O)[C@](C)(Cc1ccccc1)NC(=O)[C@H](CO)NC(=O)CNC(=O)[C@H](CCC(=O)O)NC(=O)C(C)(C)NC(=O)[C@@H](N)Cc1c[nH]cn1)[C@@H](C)O)C(C)C)C(=O)N[C@@H](C)C(=O)N[C@@](C)(Cc1ccccc1)C(=O)N[C@H](C(=O)N[C@H](C(=O)N[C@@](C)(CCCCN)C(=O)NCC(=O)NCC(N)=O)C(C)C)C(C)C)C(=O)O [compound 77] (H-H[Aib]EGS[αMeF]TSDV[αMeS]S[αMeF]LEGEAA[αMeK]E[αMeF]K([γGlu-Palmitoyl])A[αMeF]VV[αMeK]GG-NH2; N-terminus assumed) |
| 8 | 11.09 | CCCCCCCCCCCCCCCC(=O)N[C@@H](CCC(=O)NCCCC[C@H](NC(=O)[C@H](CCC(=O)O)NC(=O)[C@H](CC(C)C)NC(=O)[C@](C)(Cc1ccccc1)NC(=O)[C@H](CO)NC(=O)[C@](C)(CO)NC(=O)[C@@H](NC(=O)[C@H](CC(=O)O)NC(=O)[C@H](CO)NC(=O)[C@@H](NC(=O)[C@](C)(Cc1ccccc1)NC(=O)[C@H](CO)NC(=O)CNC(=O)[C@H](CCC(=O)O)NC(=O)C(C)(C)NC(=O)[C@@H](N)Cc1c[nH]cn1)[C@@H](C)O)C(C)C)C(=O)N[C@@H](CCC(=O)O)C(=O)N[C@@H](C)C(=O)N[C@@H](C)C(=O)N[C@@](C)(CCCCN)C(=O)N[C@@H](CCC(=O)O)C(=O)N[C@@](C)(Cc1ccccc1)C(=O)N[C@H](C(=O)N[C@@H](C)C(=O)N[C@@](C)(Cc1ccccc1)C(=O)N[C@H](C(=O)N[C@H](C(=O)N[C@@](C)(CCCCN)C(=O)NCC(=O)NCC(N)=O)C(C)C)C(C)C)[C@@H](C)CC)C(=O)O [compound 84] (H-H[Aib]EGS[αMeF]TSDV[αMeS]S[αMeF]LEK([γGlu-Palmitoyl])EAA[αMeK]E[αMeF]IA[αMeF]VV[αMeK]GG-NH2; N-terminus assumed) |
| 17 | – | CC[C@H](C)[C@H](NC(=O)[C@](C)(Cc1ccccc1)NC(=O)[C@H](CCC(=O)O)NC(=O)[C@](C)(CCCCN)NC(=O)[C@H](C)NC(=O)[C@H](CCCCNC(=O)COCCOCCNC(=O)COCCOCCNC(=O)CC[C@H](NC(=O)CCCCCCCCCCCCCCCCC(=O)O)C(=O)O)NC(=O)[C@H](CCC(=O)O)NC(=O)CNC(=O)[C@H](CCC(=O)O)NC(=O)[C@H](CC(C)C)NC(=O)[C@](C)(Cc1ccccc1)NC(=O)[C@H](CO)NC(=O)[C@](C)(CO)NC(=O)[C@@H](NC(=O)[C@H](CC(=O)O)NC(=O)[C@H](CO)NC(=O)[C@@H](NC(=O)[C@](C)(Cc1ccccc1)NC(=O)[C@H](CO)NC(=O)CNC(=O)[C@H](CCC(=O)O)NC(=O)C(C)(C)NC(=O)[C@@H](N)Cc1c[nH]cn1)[C@@H](C)O)C(C)C)C(=O)N[C@@H](C)C(=O)N[C@@](C)(Cc1ccccc1)C(=O)N[C@H](C(=O)N[C@H](C(=O)N[C@@](C)(CCCCN)C(=O)NCC(=O)NCC(N)=O)C(C)C)C(C)C [compound 111] (H-H[Aib]EGS[αMeF]TSDV[αMeS]S[αMeF]LEGEK([AEEA-AEEA-γGlu-C18 diacid])A[αMeK]E[αMeF]IA[αMeF]VV[αMeK]GG-NH2; N-terminus assumed) |
